US20250041298A1, “CDK4 INHIBITOR FOR THE TREATMENT OF CANCER” (Pfizer Inc., priority 2021, published 2025)
Values joined by “and” are separate entries in the source; they are usually repeats but may differ in a detail not shown here. Identical values can stand only once.

Columns and labels:
Type in all cases: cell-based, human
[1] = test system: HR+, HER2- T47D breast cancer spheroids; experiment: Multicellular tumor spheroid growth inhibition (SGI), T47D
Method: (§1) The purpose of this example was to evaluate the combination effect of PF-07220060 and endocrine therapy in multicellular tumor spheroid growth inhibition (SGI). To model the characteristics and cellular behavior of human tumors, the activity of PF-07220060 was evaluated in three dimensional MCTS models of HR+ breast cancer and AR+ prostate cancer following PF-07220060 treatment as a single agent and in combination with fulvestrant • 1) in HR+, HER2-T47D breast cancer spheroids. • 2) in HR+, HER2+BT474 breast cancer spheroids, • 3) in BT474 spheroids, and • 4) in AR+ prostate carcinoma cell line (LNCaP) prostate cancer spheroids. Spheroids were treated with increasing concentrations of 100, 300, or 1000 nM PF-07220060 and compared to palbociclib at the clinically relevant concentration of 30 nM. Single agent PF-07220060 inhibited spheroid growth in a dose-dependent manner, with highest efficacy (86% SGI over the duration of treatment with 1000 nM) shown in the T47D BC spheroid model (Table 1). Combining 100 nM PF-07220060 with 1 nM fulvestrant in T47D cells increased SGI to 96% compared to either single agent alone (57 to 67% SGI with 100 nM PF-07220060 or 79% SGI with fulvestrant) (Table 1). BT474 spheroids were relatively less sensitive to PF-07220060 resulting in 52% SGI at 1000 nM.

[2] = test system: HR+, HER2+ BT474 breast cancer spheroids; experiment: Multicellular tumor spheroid growth inhibition (SGI), BT474
Method: as §1

[3] = test system: AR+ prostate carcinoma cell line (LNCaP) prostate cancer spheroids; experiment: Multicellular tumor spheroid growth inhibition (SGI), LNCaP
Method: The purpose of this example was to evaluate the combination effect of PF-07220060 and endocrine therapy in multicellular tumor spheroid growth inhibition (SGI). To model the characteristics and cellular behavior of human tumors, the activity of PF-07220060 was evaluated in three dimensional MCTS models of HR+ breast cancer and AR+ prostate cancer following PF-07220060 treatment as a single agent and in combination with fulvestrant • 1) in HR+, HER2-T47D breast cancer spheroids. • 2) in HR+, HER2+BT474 breast cancer spheroids, • 3) in BT474 spheroids, and • 4) in AR+ prostate carcinoma cell line (LNCaP) prostate cancer spheroids. Spheroids were treated with increasing concentrations of 100, 300, or 1000 nM PF-07220060 and compared to palbociclib at the clinically relevant concentration of 30 nM.

Row | Compound | SGI ([1]; 1 nM single agent) | SGI ([2]; 100 nM single agent) | SGI ([1]; 30 nM single agent) | SGI ([3]; 30 nM single agent) | SGI ([3]; 100 nM single agent) | SGI ([2]; 30 nM single agent)
1 | C[C@]12CC[C@@H]3c4ccc(O)cc4C[C@@H](CCCCCCCCC[S+]([O-])CCCC(F)(F)C(F)(F)F)[C@H]3[C@@H]1CC[C@@H]2O (stereo partly drawn) [Fulvestrant, reference compound] | 79% | 10% | – | – | – | –
2 | CC(=O)c1c(C)c2cnc(Nc3ccc(N4CCNCC4)cn3)nc2n(C2CCCC2)c1=O [Palbociclib, reference compound] | – | – | 38% and 49% | 5% | 24% | 0% and 5% and 1%
